The structures appear in SMILES notation.

The test system of this experiment is HCV replicon. The experiment in a line: Replicon based assay of HCV replication inhibition (NPT ELISA). Type of experiment: cell-based, Hepatitis C virus. The following applies: Hepatitis C virus, Huh-7, 72 h, Table III; Huh-7 HCV replicon-containing cells, three days; read-out: Activity. In outline: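 NPT (neomycin phosphotransferase) content, proportional to replicon replication, quantified by capture ELISA on day four. Before that, replicon-bearing Huh-7 cells in G418-free screening medium were exposed three days at 37° C to compound, typically six doses from 10 to 0.03 micromolar, with equal DMSO across wells.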
In general terms: Replicon systems follow genome replication, usually without infectious particles.
As to `CCCCCCCCc1ccc(Nc2nc(-c3ccc(F)cc3)cs2)cc1` [compound 544, 4-(4-fluorophenyl)-N-(4-octylphenyl)thiazol-2-amine], the EC50 is below 1000 nM.
The result for `CCCCCCCCc1ccc(Nc2nc(-c3ccc(O)c(C(N)=O)c3)cs2)cc1` [compound 545, 5-(2-(4-octylphenylamino)thiazol-4-yl)-2-hydroxybenzamide] reads below 1000 nM.
The result for `CCCCCCCCc1ccc(Nc2nc(-c3ccc(Cl)s3)cs2)cc1` [compound 546, 4-(5-chlorothiophen-2-yl)-N-(4-octylphenyl)thiazol-2-amine] reads below 1000 nM; that for `CCCCCCCCc1ccc(Nc2nc(-c3ccc(O)c(O)c3)cs2)cc1` [compound 547, 4-(2-(4-octylphenylamino)thiazol-4-yl)benzene-1,2-diol], below 1000 nM; that for `CCCCCCCCc1ccc(Nc2nc(-c3ccc4c(c3)NC(=O)CO4)cs2)cc1` [compound 548, 6-(2-(4-octylphenylamino)thiazol-4-yl)-2H-benzo[b][1,4]oxazin-3(4H)-one], below 1000 nM.
With `CCCCCCCCc1ccc(Nc2nc(-c3ccc4[nH]c(=O)oc4c3)cs2)cc1` [compound 549, 6-(2-(4-octylphenylamrno)thiazol-4-yl)benzo[d]oxazol-2(3H)-one], the EC50 was below 1000 nM.
The result for `CCCCCCCCc1ccc(Nc2nc(-c3ccc(OCC(=O)O)cc3)c(C)s2)cc1` [compound 550, 2-(4-(2-(4-octylphenylamino)-5-methylthiazol-4-yl)phenoxy)acetic acid] reads below 1000 nM; that for `CCCCCCCCc1ccc(Nc2nc(-c3ccccn3)cs2)cc1` [compound 551, N-(4-octylphenyl)-4-(pyridin-2-yl)thiazol-2-amine], below 1000 nM; that for `CCCCCCCCc1ccc(Nc2nc(-c3ccc(-c4ccccn4)s3)cs2)cc1` [compound 552, N-(4-octylphenyl)-4-(5-(pyridin-2-yl)thiophen-2-yl)thiazol-2-amine], below 1000 nM.
On to `CCCCCCCCc1ccc(Nc2nc(-c3cc4ccccc4o3)cs2)cc1` [compound 553, 4-(benzofuran-2-yl)-N-(4-octylphenyl)thiazol-2-amine], for which the EC50 is 1000 to 10000 nM.
Regarding `CCCCCCCCc1ccc(Nc2nc(-c3sc(-c4cnccn4)nc3C)cs2)cc1` [compound 554, 4-(4-methyl-2-(pyrazin-2-yl)thiazol-5-yl)-N-(4-octylphenyl)thiazol-2-amine], the EC50 was below 1000 nM.
For the compound `CCCCCCCCc1ccc(Nc2nc(-c3ccc(Cl)cc3)cs2)cc1` [compound 555, 4-(4-chlorophenyl)-N-(4-octylphenyl)thiazol-2-amine], the EC50 is below 1000 nM.
As to `CCCCCCCc1ccc(Nc2nc(-c3ccc(O)c(C(N)=O)c3)cs2)cc1` [compound 557, 5-(2-(4-heptylphenylamino)thiazol-4-yl)-2-hydroxybenzamide], the EC50 is below 1000 nM.
The result for `CCCCCCCc1ccc(Nc2nc(-c3ccc(Cl)s3)cs2)cc1` [compound 558, 4-(5-chlorothiophen-2-yl)-N-(4-heptylphenyl)thiazol-2-amine] reads below 1000 nM; that for `CCCCCCCc1ccc(Nc2nc(-c3ccc(O)c(O)c3)cs2)cc1` [compound 559, 4-(2-(4-heptylphenylamino)thiazol-4-yl)benzene-1,2-diol], below 1000 nM; that for `CCCCCCCc1ccc(Nc2nc(-c3ccc4c(c3)NC(=O)CO4)cs2)cc1` [compound 560], below 1000 nM.
On to `CCCCCCCc1ccc(Nc2nc(-c3ccc4[nH]c(=O)oc4c3)cs2)cc1` [compound 561], for which the EC50 is below 1000 nM.
For the compound `CCCCCCCc1ccc(Nc2nc(-c3ccc(OCC(=O)O)cc3)c(C)s2)cc1` [compound 562, 2-(4-(2-(4-heptylphenylamino)-5-methylthiazol-4-yl)phenoxy)acetic acid], the EC50 was below 1000 nM.
The result for `CCCCCCCc1ccc(Nc2nc(-c3ccccn3)cs2)cc1` [compound 563, N-(4-heptylphenyl)-4-(pyridin-2-yl)thiazol-2-amine] reads below 1000 nM; that for `CCCCCCCc1ccc(Nc2nc(-c3ccc(-c4ccccn4)s3)cs2)cc1` [compound 564, N-(4-heptylphenyl)-4-(5-(pyridin-2-yl)thiophen-2-yl)thiazol-2-amine], below 1000 nM; that for `CCCCCCCc1ccc(Nc2nc(-c3cc4ccccc4o3)cs2)cc1` [compound 565, 4-(benzofuran-2-yl)-N-(4-heptylphenyl)thiazol-2-amine], above 10000 nM.
For `CCCCCCCc1ccc(Nc2nc(-c3sc(-c4cnccn4)nc3C)cs2)cc1` [compound 566, N-(4-heptylphenyl)-4-(4-methyl-2-(pyrazin-2-yl)thiazol-5-yl)thiazol-2-amine] the value was below 1000 nM; for `CCCCCCCc1ccc(Nc2nc(-c3ccc(Cl)cc3)cs2)cc1` [compound 567, 4-(4-chlorophenyl)-N-(4-heptylphenyl)thiazol-2-amine], below 1000 nM; for `CCCCCCCCN(C)c1ccc(Nc2nc(-c3ccc(F)cc3)cs2)cc1C(F)(F)F` [compound 568, 2-(trifluoromethyl)-N^4-(4-(4-fluorophenyl)thiazol-2-yl)-N^1-methyl-N^1-octylbenzene-1,4-diamine], below 1000 nM.
The result for `CCCCCCCCN(C)c1ccc(Nc2nc(-c3ccc(O)c(C(N)=O)c3)cs2)cc1C(F)(F)F` [compound 569, 5-(2-(4-(N-methyl-N-octylamino)-3-(trifluoromethyl)phenylamino)thiazol-4-yl)-2-hydroxybenzamide] reads below 1000 nM; that for `CCCCCCCCN(C)c1ccc(Nc2nc(-c3ccc(Cl)s3)cs2)cc1C(F)(F)F` [compound 570, N^4-(4-(5-chlorothiophen-2-yl)thiazol-2-yl)-2-(trifluoromethyl)-N^1-methyl-N^1-octylbenzene-1,4-diamine], below 1000 nM; that for `CCCCCCCCN(C)c1ccc(Nc2nc(-c3ccc(O)c(O)c3)cs2)cc1C(F)(F)F` [compound 571, 4-(2-(4-(N-methyl-N-octylamino)-3-(trifluoromethyl)phenylamino)thiazol-4-yl)benzene-1,2-diol], below 1000 nM.
As to `CCCCCCCCN(C)c1ccc(Nc2nc(-c3ccc4c(c3)NC(=O)CO4)cs2)cc1C(F)(F)F` [compound 572, 6-(2-(4-(N-methyl-N-octylamino)-3-(trifluoromethyl)phenylamino)thiazol-4-yl)-2H-benzo[b][1,4]oxazin-3(4H)-one], the EC50 is 1000 to 10000 nM.
The result for `CCCCCCCCN(C)c1ccc(Nc2nc(-c3ccc4[nH]c(=O)oc4c3)cs2)cc1C(F)(F)F` [compound 573, 6-(2-(4-(N-methyl-N-octylamino)-3-(tnfluoromethyl)phenylamino)azol-4-yl)benzo[d]oxazol-2(3H)-one] reads below 1000 nM.
On to `CCCCCCCCN(C)c1ccc(Nc2nc(-c3ccc(OCC(=O)O)cc3)c(C)s2)cc1C(F)(F)F` [compound 574, 2-(4-(2-(4-(N-methyl-N-octylamino)-3-(trifluoromethyl)phenylamino)-5-methylthiazol-4-yl)phenoxy)acetic acid], for which the EC50 is below 1000 nM.
Turning to `CCCCCCCCN(C)c1ccc(Nc2nc(-c3ccc(-c4ccccn4)s3)cs2)cc1C(F)(F)F` [compound 576, 2-(trifluoromethyl)-N^1-methyl-N^1-octyl-N^4-(4-(5-(pyridin-2-yl)thiophen-2-yl)thiazol-2-yl)benzene-1,4-diamine], the EC50 is below 1000 nM.
On to `CCCCCCCCN(C)c1ccc(Nc2nc(-c3cc4ccccc4o3)cs2)cc1C(F)(F)F` [compound 577, N^4-(4-(benzofuran-2-yl)thiazol-2-yl)-2-(trifluoromethyl)-N^1-methyl-N^1-octylbenzene-1,4-diamine], for which the EC50 was 1000 to 10000 nM.
With `CCCCCCCCN(C)c1ccc(Nc2nc(-c3sc(-c4cnccn4)nc3C)cs2)cc1C(F)(F)F` [compound 578, 2-(trifluoromethyl)-N^1-methyl-N^4-(4-(4-methyl-2-(pyrazin-2-yl)thiazol-5-yl)thiazol-2-yl)-N^1-octylbenzene-1,4-diamine], the EC50 lay within 1000 to 10000 nM.
`CCCCCCCCN(C)c1ccc(Nc2nc(-c3ccc(Cl)cc3)cs2)cc1C(F)(F)F` [compound 579, N^4-(4-(4-chlorophenyl)thiazol-2-yl)-2-(trifluoromethyl)-N^1-methyl-N^1-octylbenzene-1,4-diamine]: the EC50 was below 1000 nM.
As for `CCCCCCCCOc1ccc(Nc2nc(-c3ccc(F)cc3)cs2)cc1C(F)(F)F` [compound 580, N-(3-(trifluoromethyl)-4-(octyloxy)phenyl)-4-(4-fluorophenyl)thiazol-2-amine], the EC50 was below 1000 nM.
The result for `CCCCCCCCOc1ccc(Nc2nc(-c3ccc(O)c(C(N)=O)c3)cs2)cc1C(F)(F)F` [compound 581, 5-(2-(3-(trifluoromethyl)-4-(octyloxy)phenylamino)thiazol-4-yl)-2-hydroxybenzamide] reads below 1000 nM.
For `CCCCCCCCOc1ccc(Nc2nc(-c3ccc(Cl)s3)cs2)cc1C(F)(F)F` [compound 582, 4-(5-chlorothiophen-2-yl)-N-(3-(trifluoromethyl)-4-(octyloxy)phenyl)thiazol-2-amine] the value was below 1000 nM.
On to `CCCCCCCCOc1ccc(Nc2nc(-c3ccc(O)c(O)c3)cs2)cc1C(F)(F)F` [compound 583, 4-(2-(3-(trifluoromethyl)-4-(octyloxy)phenylamino)thiazol-4-yl)benzene-1,2-diol], for which the EC50 is below 1000 nM.
The result for `CCCCCCCCOc1ccc(Nc2nc(-c3ccc4c(c3)NC(=O)CO4)cs2)cc1C(F)(F)F` [compound 584, 6-(2-(3-(trifluoromethyl)-4-(octyloxy)phenylamino)thiazol-4-yl)-2H-benzo[b][1,4]oxazin-3(4H)-one] reads below 1000 nM; that for `CCCCCCCCOc1ccc(Nc2nc(-c3ccc4[nH]c(=O)oc4c3)cs2)cc1C(F)(F)F` [compound 585, 6-(2-(3-(trifluoromethyl)-4-(octyloxy)phenylamino)thiazol-4-yl)benzo[d]oxazol-2(3H)-one], below 1000 nM.

(Values after patent publication US8088806B2 (Achillion Pharmaceuticals, Inc., priority 2005, dated 2012).)
